{"source": "ChEMBL document CHEMBL3217548", "about": "“Biological activity and DNA binding studies of 2-substituted benzimidazo[1,2-a]quinolines bearing different amino side chains” (Medchemcomm, 2013)", "key": {"[1]": {"tested_on": "Calf thymus DNA", "assay": "Binding affinity to calf thymus DNA assessed as bathochromic shift at 20 uM by UV/visible spectrophotometry", "format": "nucleic-acid assay", "settings": "Bos taurus"}, "[2]": {"tested_on": "Calf thymus DNA", "assay": "Binding affinity to calf thymus DNA assessed as hypochromic shift at 20 uM by UV/visible spectrophotometry", "format": "nucleic-acid assay", "settings": "Bos taurus"}, "[3]": {"assay": "Binding affinity to DNA (unknown origin) at 1 to 10 uM after 15 mins by DNA footprinting assay"}, "[4]": {"organism": "Homo sapiens", "assay": "Inhibition of human DNA topoisomerase 2 assessed as inhibition of DNA cleavage"}, "[5]": {"target": "T1, DNA topoisomerase 1 (Homo sapiens) (UniProt P11387)", "T1 sequence (whole entry)": "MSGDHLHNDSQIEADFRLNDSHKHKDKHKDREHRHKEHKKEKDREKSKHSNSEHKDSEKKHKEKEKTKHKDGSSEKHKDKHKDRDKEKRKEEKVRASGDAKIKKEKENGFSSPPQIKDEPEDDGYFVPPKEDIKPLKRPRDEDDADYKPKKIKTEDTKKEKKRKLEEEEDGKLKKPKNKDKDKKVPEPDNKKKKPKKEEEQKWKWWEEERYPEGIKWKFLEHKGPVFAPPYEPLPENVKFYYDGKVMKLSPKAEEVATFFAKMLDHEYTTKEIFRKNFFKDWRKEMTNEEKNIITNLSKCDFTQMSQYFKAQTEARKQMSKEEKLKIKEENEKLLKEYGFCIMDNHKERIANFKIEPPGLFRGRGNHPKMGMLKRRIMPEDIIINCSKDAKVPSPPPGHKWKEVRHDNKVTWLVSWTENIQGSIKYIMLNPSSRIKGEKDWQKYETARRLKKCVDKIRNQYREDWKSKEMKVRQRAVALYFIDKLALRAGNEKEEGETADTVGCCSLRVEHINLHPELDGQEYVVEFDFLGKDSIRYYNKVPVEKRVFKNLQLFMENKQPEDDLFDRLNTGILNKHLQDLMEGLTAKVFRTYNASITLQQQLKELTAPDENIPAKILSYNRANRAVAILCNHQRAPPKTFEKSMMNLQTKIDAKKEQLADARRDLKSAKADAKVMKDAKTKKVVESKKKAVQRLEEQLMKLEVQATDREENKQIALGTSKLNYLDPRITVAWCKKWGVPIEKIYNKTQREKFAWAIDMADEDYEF", "assay": "Inhibition of human DNA topoisomerase 1 assessed as inhibition of DNA cleavage"}, "[6]": {"tested_on": "Escherichia coli", "assay": "Binding affinity to Escherichia coli pUC19 plasmid assessed as nicked DNA at 0.1 to 5 uM by ethidium bromide staining-based agarose gel electrophoresis"}, "[7]": {"tested_on": "Escherichia coli", "assay": "Binding affinity to Escherichia coli pUC19 plasmid assessed as induction of topoisomerase1-mediated DNA relaxation at 1 uM incubated for 45 mins prior to topoisomerase1 addition by agarose gel electrophoresis"}, "[8]": {"tested_on": "Calf thymus DNA", "assay": "Binding affinity to calf thymus DNA assessed as DNA intercalation by circular dichroism analysis", "format": "nucleic-acid assay", "settings": "Bos taurus"}, "[9]": {"tested_on": "Calf thymus DNA", "assay": "Binding affinity to calf thymus DNA assessed as change in melting temperature at 0.5 drug/DNA ratio by spectrophotometry", "format": "nucleic-acid assay", "settings": "Bos taurus"}, "[10]": {"assay": "Drug uptake in human H460 cell nucleoli at 10 uM after 2 hrs by fluorescence microscopy", "format": "ADME, cell-based", "settings": "h460, 2 h"}, "[11]": {"assay": "Drug uptake in human H460 cell endoplasmic reticulum at 10 uM after 2 hrs by fluorescence microscopy", "format": "ADME, cell-based", "settings": "h460, 2 h"}, "[12]": {"tested_on": "HCT-116", "assay": "Cell cycle arrest in human HCT116 cells assessed as accumulation at subG1 phase at 5 uM after 24 hrs by propidium iodide staining-based FACS analysis", "format": "functional"}, "[13]": {"tested_on": "HCT-116", "assay": "Cell cycle arrest in human HCT116 cells assessed as accumulation at subG1 phase after 24 hrs by propidium iodide staining-based FACS analysis", "format": "functional"}, "[14]": {"tested_on": "HCT-116", "assay": "Cell cycle arrest in human HCT116 cells assessed as accumulation at G2/M phase at 1 uM after 48 hrs by propidium iodide staining-based FACS analysis (reference value: 28 +/- 3 %)", "format": "functional"}, "[15]": {"tested_on": "HCT-116", "assay": "Cell cycle arrest in human HCT116 cells assessed as accumulation at G2/M phase at 0.1 uM after 48 hrs by propidium iodide staining-based FACS analysis (reference value: 28 +/- 3 %)", "format": "functional"}, "[16]": {"tested_on": "HCT-116", "assay": "Cell cycle arrest in human HCT116 cells assessed as accumulation at G2/M phase at 1 uM after 24 hrs by propidium iodide staining-based FACS analysis (reference value: 29 +/- 8 %)", "format": "functional"}, "[17]": {"tested_on": "HCT-116", "assay": "Cell cycle arrest in human HCT116 cells assessed as accumulation at G2/M phase at 0.1 uM after 24 hrs by propidium iodide staining-based FACS analysis (reference value: 29 +/- 8 %)", "format": "functional"}, "[18]": {"tested_on": "HCT-116", "assay": "Cell cycle arrest in human HCT116 cells assessed as accumulation at S phase at 1 uM after 48 hrs by propidium iodide staining-based FACS analysis (reference value: 12+/- 5 %)", "format": "functional"}, "[19]": {"tested_on": "HCT-116", "assay": "Cell cycle arrest in human HCT116 cells assessed as accumulation at S phase at 0.1 uM after 48 hrs by propidium iodide staining-based FACS analysis (reference value: 12+/- 5 %)", "format": "functional"}, "[20]": {"tested_on": "HCT-116", "assay": "Cell cycle arrest in human HCT116 cells assessed as accumulation at S phase at 1 uM after 24 hrs by propidium iodide staining-based FACS analysis (reference value: 48 +/- 6 %)", "format": "functional"}, "[21]": {"tested_on": "HCT-116", "assay": "Cell cycle arrest in human HCT116 cells assessed as accumulation at S phase at 0.1 uM after 24 hrs by propidium iodide staining-based FACS analysis (reference value: 48 +/- 6 %)", "format": "functional"}, "[22]": {"tested_on": "HCT-116", "assay": "Cell cycle arrest in human HCT116 cells assessed as accumulation at G1 phase at 1 uM after 48 hrs by propidium iodide staining-based FACS analysis (reference value: 60 +/- 2 %)", "format": "functional"}, "[23]": {"tested_on": "HCT-116", "assay": "Cell cycle arrest in human HCT116 cells assessed as accumulation at G1 phase at 0.1 uM after 48 hrs by propidium iodide staining-based FACS analysis (reference value: 60 +/- 2 %)", "format": "functional"}, "[24]": {"tested_on": "HCT-116", "assay": "Cell cycle arrest in human HCT116 cells assessed as accumulation at G1 phase at 1 uM after 24 hrs by propidium iodide staining-based FACS analysis (reference value: 23 +/- 2 %)", "format": "functional"}, "[25]": {"tested_on": "HCT-116", "assay": "Cell cycle arrest in human HCT116 cells assessed as accumulation at G1 phase at 0.1 uM after 24 hrs by propidium iodide staining-based FACS analysis (reference value: 23 +/- 2 %)", "format": "functional"}, "[26]": {"tested_on": "HCT-116", "assay": "Cell cycle arrest in human HCT116 cells assessed as accumulation at subG1 phase at 1 uM after 48 hrs by propidium iodide staining-based FACS analysis (reference value: 5 +/- 2 %)", "format": "functional"}, "[27]": {"tested_on": "HCT-116", "assay": "Cell cycle arrest in human HCT116 cells assessed as accumulation at subG1 phase at 0.1 uM after 48 hrs by propidium iodide staining-based FACS analysis (reference value: 5 +/- 2 %)", "format": "functional"}, "[28]": {"tested_on": "HCT-116", "assay": "Cell cycle arrest in human HCT116 cells assessed as accumulation at subG1 phase at 1 uM after 24 hrs by propidium iodide staining-based FACS analysis (reference value: 2 +/- 0.1 %)", "format": "functional"}, "[29]": {"tested_on": "HCT-116", "assay": "Cell cycle arrest in human HCT116 cells assessed as accumulation at subG1 phase at 0.1 uM after 24 hrs by propidium iodide staining-based FACS analysis (reference value: 2 +/- 0.1 %)", "format": "functional"}, "[30]": {"tested_on": "MCF7", "assay": "Cytotoxicity against human MCF7 cells after 72 hrs by MTT assay", "format": "functional, cell-based", "settings": "MCF7, 72 h"}, "[31]": {"assay": "Cytotoxicity against human H460 cells after 72 hrs by MTT assay", "format": "functional, cell-based", "settings": "NCI-H460, 72 h"}, "[32]": {"tested_on": "HCT-116", "assay": "Cytotoxicity against human HCT116 cells after 72 hrs by MTT assay", "format": "functional, cell-based", "settings": "HCT-116, 72 h"}, "[33]": {"tested_on": "DNA", "assay": "Induction of DNA damage in plasmid DNA in E. coli S30 cell-free system assessed as inhibition of EGFP translation at 50 uM after 1 hr by fluorescence assay"}}, "note": "Activity calls are given as the source filed them. No cut-off for these calls is given here."}
{"smiles": "N#Cc1cc2ccc(N3CCNCC3)cc2n2c1nc1ccccc12", "values": [{"measurement": "Activity", "setting": "[1]", "result": "Active"}, {"measurement": "Activity", "setting": "[2]", "result": "Active"}, {"measurement": "Activity", "setting": "[3]", "result": "Active"}, {"measurement": "Activity", "setting": "[4]", "result": "inactive"}, {"measurement": "Activity", "setting": "[5]", "result": "inactive"}, {"measurement": "Activity", "setting": "[6]", "result": "Active"}, {"measurement": "Activity", "setting": "[7]", "result": "Active"}, {"measurement": "Activity", "setting": "[8]", "result": "Dose-dependent effect"}, {"measurement": "ΔTm", "setting": "[9]", "result": 17.3, "unit": "°C"}, {"measurement": "Drug uptake", "setting": "[10]", "result": "Active"}, {"measurement": "Drug uptake", "setting": "[11]", "result": "Active"}, {"measurement": "Activity", "setting": "[12]", "result": 40, "unit": "%"}, {"measurement": "Activity", "setting": "[13]", "result": "Dose-dependent effect"}, {"measurement": "Activity", "setting": "[14]", "result": 69, "unit": "%"}, {"measurement": "Activity", "setting": "[15]", "result": 30, "unit": "%"}, {"measurement": "Activity", "setting": "[16]", "result": 85, "unit": "%"}, {"measurement": "Activity", "setting": "[17]", "result": 80, "unit": "%"}, {"measurement": "Activity", "setting": "[18]", "result": 1, "unit": "%"}, {"measurement": "Activity", "setting": "[19]", "result": 11, "unit": "%"}, {"measurement": "Activity", "setting": "[20]", "result": 0, "unit": "%"}, {"measurement": "Activity", "setting": "[21]", "result": 1, "unit": "%"}, {"measurement": "Activity", "setting": "[22]", "result": 30, "unit": "%"}, {"measurement": "Activity", "setting": "[23]", "result": 59, "unit": "%"}, {"measurement": "Activity", "setting": "[24]", "result": 15, "unit": "%"}, {"measurement": "Activity", "setting": "[25]", "result": 19, "unit": "%"}, {"measurement": "Activity", "setting": "[26]", "result": 12, "unit": "%"}, {"measurement": "Activity", "setting": "[27]", "result": 11, "unit": "%"}, {"measurement": "Activity", "setting": "[28]", "result": 12, "unit": "%"}, {"measurement": "Activity", "setting": "[29]", "result": 2, "unit": "%"}, {"measurement": "IC50", "setting": "[30]", "result": 0.2, "unit": "µM"}, {"measurement": "IC50", "setting": "[31]", "result": 0.2, "unit": "µM"}, {"measurement": "IC50", "setting": "[32]", "result": 0.06, "unit": "µM"}, {"measurement": "inhibition at 50 µM", "setting": "[33]", "result": 38, "unit": "%"}]}
